The values below come from patent publication US6699834B1, “Method for treating cancer” (University of Maryland Biotechnology Institute, priority 1997, dated 2004).

Experiment [1] relates to lung cancer cells. The experiment in a line: Trypan blue cell death assay, lung cancer cells. Format: cell-based. Here is the method:
(§1) The hCG preparations, fractions of the early pregnancy urine and hCG APL™ SUPERDEX™ 200 fractionations (described herein), and certain β-hCG peptides were tested on prostate, lung, breast, and kidney cancer cells in vitro, and on prostate tumors in nude mice. […] The preparations fractions and peptides were also assayed using a clonogenic assay in which cells were seeded in methylcellulose in the presence or absence of test substance and then colonies were counted after a certain period of time. Cells were also examined for apoptosis by confocal microscopy.
The effects of hCG preparations, hCG fractions and β-hCG peptides were tested in lung cancer cells in vitro. Lung cancer cells were incubated with the hCG preparations, hCG fractions and β-hCG peptides in both the trypan blue viability assay and the clonogenic assay.

In experiment [2] the test system is Kaposi's Sarcoma induced in mice. The experiment in a line: Kaposi's Sarcoma tumors induced in mice by KS Y-1 cells. Format: in vivo.
The subject of experiment [3] is lung cancer cells. The experiment in a line: Apoptosis by confocal microscopy, lung cancer cells. It counts as cell-based. The settings on record: 48 hours. On the procedure: (§2) The preparations fractions and peptides were also assayed using a clonogenic assay in which cells were seeded in methylcellulose in the presence or absence of test substance and then colonies were counted after a certain period of time. Cells were also examined for apoptosis by confocal microscopy. FIGS. 23A-F show confocal micrograms of lung cancer cells treated with the hCG or hCG related preparation and then stained with FITC labelled actin monoclonal antibody to visualize the cytoskeleton and propidium iodine to visualize the cells nucleus. Condensation of the nucleus and damage to the cytoskeleton are indications of apoptosis.

The subject of a further experiment is KS Y-1 and KS-SLK cells. In words: Kaposi's Sarcoma clonogenic assay in cultured cells. It counts as cell-based, human. The note with it: for inhibition of KS cell growth in clonogenic assays (in words): KS Y-1 and KS SLK. In outline: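 KS Y-1 or KS-SLK cells, 5×10^4 seeded in 0.8% methylcellulose, grown 10 days with or without hCG, β-hCG or β-hCG peptide preparations; well-formed colonies counted in triplicate wells.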

In experiment [4] the test system is prostate cancer cells. In words: Apoptosis by confocal microscopy, prostate cancer cells. The note with it: 48 hours. Format: cell-based. Here is the method:
as §2, with “FIGS. 18A-H” for “FIGS. 23A-F”, “confocal micrographs” for “confocal micrograms”, “of prostate” for “of lung”, “with an” for “with the”, “with FITC-labelled” for “with FITC labelled”, “the cell” for “the cells”

For experiment [5], the system named is breast cancer cells. The experiment in a line: Trypan blue cell death assay, breast cancer cells. It counts as cell-based. The note with it: 100 ug/ml. On the procedure:
as §1
The effects of hCG preparations, hCG fractions and β-hCG peptides were also tested in breast cancer cells in vitro. Breast cancer cells were incubated with the hCG preparations, hCG fractions and β-hCG peptides in both the trypan blue viability assay and the clonogenic assay.

Experiment [6] has as its system lung cancer cells. In words: Clonogenic assay, lung cancer cells. It counts as cell-based. The settings on record: compared to PBS alone. Here is the method: as §1
In a further experiment the test system is HIV-1 transgenic mice. In words: Survival, growth and weight of HIV-1 transgenic mouse pups. It counts as in vivo. On the procedure:
The HIV-1 transgenic mice used for this study contain 7.4 kb of foreign DNA, including 5.1 kb of the HIV-1 proviral genome deleted in the gag and pol genes and 2.3 kb of vector (Dickie et al., 1991, Virology 185:109-119). […] In addition, these mice develop severe hyperkeratotic skin lesions with marked expression of gp 120 and nef genes (Kopp et al., 1993, AIDS Res. Hum. Retroviruses 9:267-275; Vasli et al., 1994, AIDS Res. Hum. Retroviruses 10:1241-1250).
Finally, certain fractions were tested for their ability to increase survival, promote weight gain and reduce HIV-1 gene expression in HIV-1 transgenic mice as described herein.
HIV-I transgenic pups administered hCG and hCG-related preparations for the first 5 days after birth through the mothers milk were monitored for survival at 10 days after birth.

For experiment [7], the system named is prostate cancer cells. The experiment in a line: Trypan blue cell death assay, prostate cancer cells. It counts as cell-based. Here is the method:
as §1
The effects of hCG preparations, hCG fractions and β-hCG peptides were tested in prostate cancer cells both in vitro and in vivo. Cells were incubated in either 10% fetal bovine serum (FBS) or 3% fetal bovine serum plus hCG preparations, hCG fractions and β-hCG peptides.

The test system of experiment [8] is breast cancer cells. In words: Clonogenic assay, breast cancer cells. It counts as cell-based. The note with it: 100 ug/ml. Here is the method:
as §1
The hCG preparation, hCG fractions and β-hCG peptides were also tested for the inhibition of breast cancer cell colony formation in the clonogenic assay.

In experiment [9] the test system is prostate cancer cells. In words: Prostate cancers induced in nude mice. Format: in vivo. The note with it: peptide 200 μg per day, hCG APL 100 IU per day, systemic.

Bridge positions count the residues as written; N and C are the ends. Ends that are not written are not given here.

Consider “4. Circ 44-57: β-hCG 44-57 with cysteine substituted at position 44, circularized via disulfide bond (SEQ ID NO:26) (CLQGVLPALPQVVC; disulfide 1-14 (inferred))”, for which the “% dead cells” value with lung cancer cells [1] (200 μg/ml) was found to be 42%; in the experiment with lung cancer cells [1] (300 μg/ml) it was 59%; with breast cancer cells [5] it was 42%. In addition, the KS in vivo result in experiment [2] (inhibition of Kaposi's Sarcoma induced in mice) is “+++ (“+++” represents greater than 70% effect)”. Moreover, the “effect on KS tumors in mice (in words)” value in experiment [2] (mouse, in vivo) is listed as “extensive cell death”. Also, the apoptosis entry in the experiment with lung cancer cells [3] and with prostate cancer cells [4] was “increased apoptosis” in each case. In addition, the “inhibition of KS cell growth in clonogenic assays (in words)” value in the experiment on KS Y-1 and KS-SLK cells (listed as cyclic 44-57) is recorded as “strongest anti-tumor effects”; in the experiment with KS Y-1 and KS-SLK cells (listed as cyclized β-hCG peptide of amino acids 44-57), “inhibited KS cell growth”. Further, the KS in vitro entry with KS Y-1 and KS-SLK cells (inhibition of Kaposi's Sarcoma cell growth in vitro in cultured cells) is recorded as “+++ (“+++” represents greater than 70% effect)”. For the same substance, the colony formation result in the experiment on lung cancer cells [6] is on record as “inhibited colony formation”. Moreover, the “weight gain / growth retardation and cachexia” value in the experiment with HIV-1 transgenic mice (HIV-1 transgenic pups) was “higher weight gain than untreated mice”. The “survival at 10 days after birth” value with HIV-1 transgenic mice (administered first 5 days after birth through mothers milk) is listed as “promote survival”. Besides, the “percentage of cell death (trypan blue)” value in the experiment with prostate cancer cells [7] (3% FBS, 200 μg/ml) is given as 39%; in the experiment with prostate cancer cells [7] (3% FBS, 300 μg/ml), 50%; with prostate cancer cells [7] (10% FBS, 200 μg/ml) it was 29%; in the experiment on prostate cancer cells [7] (10% FBS, 300 μg/ml), 38%. For the same substance, the “% inhibition (colony formation)” value with breast cancer cells [8] amounted to 45%. Also, the “apoptosis of prostate cancer cells in vivo” value in the experiment with prostate cancer cells [9] is given as “caused apoptosis of the prostate cancer cells in vivo”.
